According to publication PMC9081329, “Pharmacokinetics, Mass Balance, Excretion, and Tissue Distribution of Plasmalogen Precursor PPI-1011” (Frontiers in Cell and Developmental Biology, 2022):

Experiment: Repeat dose tissue distribution study (QWBA, LSC of blood and plasma), 15 daily doses
Assay type: in vivo, Sprague-Dawley rats
Description: Three male rats were administered [^14C]PPI-1011 at 100 mg/kg (100 μCi/kg) once daily for 15 days. One rat was sacrificed at each of the following time points after the administration of the day 15 dose: 24, 48, and 96 h. Terminal blood was collected by cardiac puncture directly into tubes with K2EDTA, an aliquot was stored at 4°C until LSC was performed for radioactivity, while the remaining blood was processed to plasma and stored at −20°C until LSC. Following blood collection, the carcasses were frozen in a cold bath with hexanes and dry ice for at least 8 min and then dried and stored at −70°C for at least 12 h. The carcasses were transferred to a −20°C freezer for at least 12 h before embedding.
QWBA was used to determine radioactivity concentrations in the caecum (contents and mucosa), large intestine (contents and mucosa), small intestine (contents and mucosa), stomach (contents and mucosa), brain, choroid plexus, spinal cord, bone, skin, adrenal gland, pineal body, pituitary gland, thyroid gland, liver, kidney (cortex, medulla and whole kidney), urinary bladder (contents and wall), brown fat, white fat, eye (lens, uveal tract and whole eye), epididymis, prostate gland, testis, ovary, uterus, lung, exorbital lachrymal gland, Harderian gland, pancreas, salivary gland, skeletal muscle, myocardium, cardiac blood, bone marrow, lymph node, spleen, and thymus. As well, LSC was used to determine the total radioactivity in the whole blood and plasma.
The whole-body cryosectioning technique described by ([Ullberg, 1977]) was the basis for embedding and cryosectioning the rats assigned to this study. Each frozen carcass was shaved, and then the limbs and tail were removed prior to embedding. Chilled (4°C) 3% CMC (low viscosity) was utilized to provide a firm support of reinforced ice around each rat and for a secure attachment to the microtome stage. Upon thorough freezing of the embedding medium surrounding each rat, the frozen CMC block was removed from the freezing bath and four 3/8 inch holes were drilled into the block. One cryosection quality control standard (CQCS) was prepared with a known amount of radioactivity and at least 1 ml aliquots were added to each of the four drilled holes. CQCS data were utilized to evaluate the overall performance of the QWBA assay.
Each frozen rat was sagittally trimmed (50–100 μm) at −20°C until exposure of a few target tissues employing a Leica Cryomacrocut heavy-duty microtome (Leica Microsystems Inc.,). Disposable stainless steel Feather type H45L knives (Feather Safety Razor Co., Ltd.) were utilized for trimming and sectioning each frozen rat. Several thinner sections (50 μm) were discarded prior to obtaining multiple 50 μm sections at various cryosectioning levels for QWBA analysis. Upon the collection of at least 60 target tissues in multiple cryosectioning levels, the cryosections were kept in the Cryomacrocut cryochamber for a minimum of 18 h for dehydration depending upon the number of cryosections within the cryochamber. After dehydration was complete, the cryosections were transferred to ambient temperature for processing. Mounted whole-body cryosections and a set of 15 standards were sandwiched between a standard phosphor screen and an exposure cassette. All cryosections were exposed to the phosphor screen for 4-days in a cabinet protected with lead prior to scanning using a Typhoon PhosphorImager (Cytiva). MCID™ Analysis software (InterFocus Ltd.) was utilized to generate a calibration curve of the STD nominal concentrations (nCi/g) versus PhosphorImager response (counts/μm^2 minus background) by weighted (1/x) linear regression analysis ([Potchoiba et al., 1995]; [Potchoiba et al., 1998]). The linear regression curve was then utilized to determine the concentration (nCi/g) of total radioactivity in whole-body tissues and blood. Radioactivity concentrations were expressed as μg Eq/g based on the specific activity of the compound in the final dose formulations. […]

[1] = 48 hr post 15 daily oral 100 mg/kg
[2] = 96 hr post 15 daily oral 100 mg/kg

With `CC/C=C\C/C=C\C/C=C\C/C=C\C/C=C\C/C=C\CCC(=O)O[C@H](CO[14CH2]CCCCCCCCCCCCCCC)COC(=O)CCCCC1CCSS1` (some centres unmarked) [[^14C]PPI-1011] the “Radioactivity concentration, Colliculus” value [1] was 68.0 μg equivalents/g, the “Radioactivity concentration, Diaphragm” value [1] was 172 μg equivalents/g and the “Radioactivity concentration, Esophagus” value [1] was 94.8 μg equivalents/g. The “Radioactivity concentration, Exorbital Lacrimal Gland” value [1] was 82.5 μg equivalents/g, the “Radioactivity concentration, Gastric Mucosa” value [1] was 307 μg equivalents/g and the “Radioactivity concentration, Harderian Gland” value [1] was 69.6 μg equivalents/g. The “Radioactivity concentration, Intra-Orbital Lacrimal Gland” value [1] was 84.5 μg equivalents/g, the “Radioactivity concentration, Kidney” value [1] was 221 μg equivalents/g and the “Radioactivity concentration, Large Intestines” value [1] was 122 μg equivalents/g. The “Radioactivity concentration, Liver” value [1] was 186 μg equivalents/g, the “Radioactivity concentration, Lung” value [1] was 181 μg equivalents/g and the “Radioactivity concentration, Lymph Node” value [1] was 165 μg equivalents/g. For the same molecule, the “Radioactivity concentration, Medulla Oblongata” value [1] was 48.4 μg equivalents/g, the “Radioactivity concentration, Muscle” value [1] was 95.4 μg equivalents/g and the “Radioactivity concentration, Myocardium” value [1] was 222 μg equivalents/g. The “Radioactivity concentration, Nasal Turbinates” value [1] was 184 μg equivalents/g, the “Radioactivity concentration, Ocular - Lens” value [1] was 5.05 μg equivalents/g and the “Radioactivity concentration, Ocular - Uveal Tract” value [1] was 59.6 μg equivalents/g. The “Radioactivity concentration, Ocular - Vitreous Body” value [1] was 2.01 μg equivalents/g, the “Radioactivity concentration, Ocular - Whole Eye” value [1] was 15.8 μg equivalents/g and the “Radioactivity concentration, Olfactory Bulb” value [1] was 35.0 μg equivalents/g. For the same molecule, the “Radioactivity concentration, Pancreas” value [1] was 312 μg equivalents/g, the “Radioactivity concentration, Parotid Gland” value [1] was 257 μg equivalents/g and the “Radioactivity concentration, Pineal Gland” value [1] was 156 μg equivalents/g. For the same molecule, the “Radioactivity concentration, Pituitary Gland” value [1] was 226 μg equivalents/g, the “Radioactivity concentration, Prostate” value [1] was 72.1 μg equivalents/g and the “Radioactivity concentration, Renal Cortex” value [1] was 244 μg equivalents/g. The “Radioactivity concentration, Renal Medulla” value [1] was 183 μg equivalents/g, the “Radioactivity concentration, Salivary Gland” value [1] was 271 μg equivalents/g and the “Radioactivity concentration, Seminal Vesicles” value [1] was 60.7 μg equivalents/g. For the same molecule, the “Radioactivity concentration, Skin - Non-Pigmented” value [1] was 101 μg equivalents/g, the “Radioactivity concentration, Small Intestines” value [1] was 164 μg equivalents/g and the “Radioactivity concentration, Spinal Cord” value [1] was 51.2 μg equivalents/g. The “Radioactivity concentration, Spleen” value [1] was 209 μg equivalents/g, the “Radioactivity concentration, Stomach” value [1] was 78.9 μg equivalents/g and the “Radioactivity concentration, Testis” value [1] was 47.2 μg equivalents/g. The “Radioactivity concentration, Thalamus” value [1] was 42.3 μg equivalents/g, the “Radioactivity concentration, Thymus” value [1] was 131 μg equivalents/g and the “Radioactivity concentration, Thyroid” value [1] was 297 μg equivalents/g. The “Radioactivity concentration, Whole Brain” value [1] was 43.7 μg equivalents/g, the “Radioactivity concentration, Adipose - Brown” value [2] was 1301 μg equivalents/g and the “Radioactivity concentration, Adipose - Brown (Vessel Wall)” value [2] was 1249 μg equivalents/g. The “Radioactivity concentration, Adipose - Subcutaneous” value [2] was 1373 μg equivalents/g, the “Radioactivity concentration, Adipose - Visceral” value [2] was 1265 μg equivalents/g and the “Radioactivity concentration, Adrenal Gland” value [2] was 1636 μg equivalents/g. For the same molecule, the “Radioactivity concentration, Bladder Wall” value [2] was 101 μg equivalents/g, the “Radioactivity concentration, Blood - QWBA” value [2] was 29.5 μg equivalents/g and the “Radioactivity concentration, Bone Marrow” value [2] was 77.3 μg equivalents/g. For the same molecule, the “Radioactivity concentration, Bone Surface” value [2] was 10.5 μg equivalents/g, the “Radioactivity concentration, Cerebellum” value [2] was 55.8 μg equivalents/g and the “Radioactivity concentration, Cerebrum” value [2] was 47.5 μg equivalents/g. For the same molecule, the “Radioactivity concentration, Choroid Plexus” value [2] was 121 μg equivalents/g, the “Radioactivity concentration, Colliculus” value [2] was 67.3 μg equivalents/g and the “Radioactivity concentration, Diaphragm” value [2] was 125 μg equivalents/g. The “Radioactivity concentration, Esophagus” value [2] was 87.1 μg equivalents/g, the “Radioactivity concentration, Exorbital Lacrimal Gland” value [2] was 71.0 μg equivalents/g and the “Radioactivity concentration, Gastric Mucosa” value [2] was 210 μg equivalents/g. The “Radioactivity concentration, Harderian Gland” value [2] was 47.9 μg equivalents/g, the “Radioactivity concentration, Intra-Orbital Lacrimal Gland” value [2] was 76.5 μg equivalents/g and the “Radioactivity concentration, Kidney” value [2] was 238 μg equivalents/g. The “Radioactivity concentration, Large Intestines” value [2] was 94.3 μg equivalents/g, the “Radioactivity concentration, Liver” value [2] was 129 μg equivalents/g and the “Radioactivity concentration, Lung” value [2] was 191 μg equivalents/g. The “Radioactivity concentration, Lymph Node” value [2] was 127 μg equivalents/g, the “Radioactivity concentration, Medulla Oblongata” value [2] was 51.8 μg equivalents/g and the “Radioactivity concentration, Muscle” value [2] was 97.9 μg equivalents/g. The “Radioactivity concentration, Myocardium” value [2] was 172 μg equivalents/g, the “Radioactivity concentration, Nasal Turbinates” value [2] was 80.2 μg equivalents/g and the “Radioactivity concentration, Ocular - Lens” value [2] was 6.92 μg equivalents/g. The “Radioactivity concentration, Ocular - Uveal Tract” value [2] was 68.9 μg equivalents/g, the “Radioactivity concentration, Ocular - Vitreous Body” value [2] was 2.06 μg equivalents/g and the “Radioactivity concentration, Ocular - Whole Eye” value [2] was 18.2 μg equivalents/g. For the same molecule, the “Radioactivity concentration, Olfactory Bulb” value [2] was 42.2 μg equivalents/g, the “Radioactivity concentration, Pancreas” value [2] was 333 μg equivalents/g and the “Radioactivity concentration, Parotid Gland” value [2] was 220 μg equivalents/g. The “Radioactivity concentration, Pineal Gland” value [2] was 179 μg equivalents/g, the “Radioactivity concentration, Pituitary Gland” value [2] was 191 μg equivalents/g and the “Radioactivity concentration, Prostate” value [2] was 84.8 μg equivalents/g. For the same molecule, the “Radioactivity concentration, Renal Cortex” value [2] was 250 μg equivalents/g, the “Radioactivity concentration, Renal Medulla” value [2] was 186 μg equivalents/g and the “Radioactivity concentration, Salivary Gland” value [2] was 227 μg equivalents/g. The “Radioactivity concentration, Seminal Vesicles” value [2] was 54.7 μg equivalents/g, the “Radioactivity concentration, Skin - Non-Pigmented” value [2] was 129 μg equivalents/g and the “Radioactivity concentration, Small Intestines” value [2] was 112 μg equivalents/g. For the same molecule, the “Radioactivity concentration, Spinal Cord” value [2] was 53.0 μg equivalents/g, the “Radioactivity concentration, Spleen” value [2] was 147 μg equivalents/g and the “Radioactivity concentration, Stomach” value [2] was 109 μg equivalents/g. For the same molecule, the “Radioactivity concentration, Testis” value [2] was 43.3 μg equivalents/g, the “Radioactivity concentration, Thalamus” value [2] was 45.4 μg equivalents/g and the “Radioactivity concentration, Thymus” value [2] was 107 μg equivalents/g. The “Radioactivity concentration, Thyroid” value [2] was 259 μg equivalents/g, the “Radioactivity concentration, Whole Brain” value [2] was 47.3 μg equivalents/g and the “Decline of radioactivity from peak concentration, subcutaneous adipose” value (by 96 HPD, 15 daily doses) was roughly 1.1 fold. The “Decline of radioactivity from peak concentration, visceral adipose” value (by 96 HPD, 15 daily doses) was roughly 1.2 fold and the “Uptake in the brain following 15 doses versus single dose, on average” value (rat, in vivo) was 16-18 times.
